The source of these data is patent US20240317744A1, “Bicyclic Ureas As Kinase Inhibitors” (Incyte Corporation, priority 2023, published 2024).

The target in test [1] is T1, pseudo-kinase domain (JH2, amino-acids 536-812) of human V617F mutant JAK2 (Homo sapiens, UniProt O60674, F794H/V617F/W659A/W777A).
T1 construct: pseudo-kinase domain (JH2, amino-acids 536-812 with 3 surface mutations W659A, W777A, F794H); His (C); purchased BPS Bioscience 79498; host or cells: baculovirus expression system
Description: JAK2 LanthaScreen JH2-V617F Binding Assay. The settings on record: JAK2 JH2-V617F 0.26 nM, 50 nM tracer, 1 hour at 25° C.; read-out: JH2 BIND V617F. The procedure, abridged: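 Binding was measured as TR-FRET displacement of 50 nM tracer from 0.26 nM biotinylated His-Avi protein, incubated one hour at 25° C; IC50 from a four-parameter fit.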
In general terms: TR-FRET usually uses a lanthanide donor and a delayed reading to cut background.

In test [2] the target is T2, catalytic domain (JH1, amino acids 826-1132) of human JAK2 (Homo sapiens, UniProt O60674).
T2 construct: catalytic domain (JH1, amino acids 826-1132) of human JAK2; FLAG (N); biotin (biotinylated); purchased Carna Biosciences 08-445-20N; host or cells: baculovirus expression system
T2 sequence (O60674 826-1132): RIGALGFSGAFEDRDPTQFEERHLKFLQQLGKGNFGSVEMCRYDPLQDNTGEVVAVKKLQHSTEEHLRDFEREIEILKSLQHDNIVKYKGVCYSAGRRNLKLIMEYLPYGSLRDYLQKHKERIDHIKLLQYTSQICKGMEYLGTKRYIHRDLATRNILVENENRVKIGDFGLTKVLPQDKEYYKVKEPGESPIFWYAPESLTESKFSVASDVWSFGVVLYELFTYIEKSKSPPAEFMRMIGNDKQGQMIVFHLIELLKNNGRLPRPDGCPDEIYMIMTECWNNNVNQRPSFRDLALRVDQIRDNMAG
Description: JAK2 LanthaScreen JH1 Binding Assay. The settings on record: JAK2 JH1 1.5 nM, 50 nM tracer, 2 hours at 25° C.; read-out: JH1 BIND. The procedure, abridged: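 TR-FRET tracer-displacement format: compound IC50 from four-parameter curves after 2 h at 25° C. Reaction held 1.5 nM biotinylated, FLAG-tagged JH1 (aa 826-1132), 50 nM tracer, 0.5 nM Streptavidin-Tb, pH 7.5 Tris buffer; 2 mM ATP set nonspecific background.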

For test [3], the target named is T3, pseudo-kinase domain (JH2, amino-acids 536-812) of human Wild Type JAK2 (Homo sapiens, UniProt O60674, F794H/W659A/W777A).
T3 construct: pseudo-kinase domain (JH2, amino-acids 536-812 with 3 surface mutations W659A, W777A, F794H); His (C); purchased BPS Bioscience 79463; host or cells: baculovirus expression system
T3 sequence (O60674 536-812 W659A/W777A/F794H): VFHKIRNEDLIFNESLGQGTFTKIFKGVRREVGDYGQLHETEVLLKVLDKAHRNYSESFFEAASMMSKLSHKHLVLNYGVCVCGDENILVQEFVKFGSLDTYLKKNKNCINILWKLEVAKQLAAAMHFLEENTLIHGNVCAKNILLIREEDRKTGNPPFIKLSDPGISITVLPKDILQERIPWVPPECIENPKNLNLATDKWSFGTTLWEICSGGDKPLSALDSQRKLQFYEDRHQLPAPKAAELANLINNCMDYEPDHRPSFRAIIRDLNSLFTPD
The test can be described thus: JAK2 LanthaScreen JH2-WT Binding Assay. The settings on record: JAK2 JH2-WT 0.145 nM, 50 nM tracer, 1 hour at 25° C.; read-out: JH2 BIND WT. The gist of the method:
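TR-FRET tracer displacement: 0.145 nM biotinylated JH2 protein, 50 nM fluorescent tracer, 0.25 nM streptavidin-Tb, compound dilution series; 50 mM Tris pH 7.5, 10 mM MgCl2, 5 mM DTT; 1 h, 25° C. Non-specific binding with 2 mM ATP. IC50 by 4-parameter fit.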

Test [4] concerns the target catalytic domain (JH1, amino acids 808-1132) of human JAK2 (Homo sapiens, UniProt O60674). Description: JAK2 HTRF Enzyme Activity Assay. Format: biochemical. The settings on record: ATP 30 µM, 60 minutes at 25° C.; read-out: V617F ENZ 30 UM.

T1 sequence (O60674 536-812 V617F/W659A/W777A/F794H): as the sequence (O60674 536-812 W659A/W777A/F794H) above, with V82F counted along it
Chain of catalytic domain (JH1, amino acids 808-1132) of human JAK2 (O60674 808-1132 limits assumed): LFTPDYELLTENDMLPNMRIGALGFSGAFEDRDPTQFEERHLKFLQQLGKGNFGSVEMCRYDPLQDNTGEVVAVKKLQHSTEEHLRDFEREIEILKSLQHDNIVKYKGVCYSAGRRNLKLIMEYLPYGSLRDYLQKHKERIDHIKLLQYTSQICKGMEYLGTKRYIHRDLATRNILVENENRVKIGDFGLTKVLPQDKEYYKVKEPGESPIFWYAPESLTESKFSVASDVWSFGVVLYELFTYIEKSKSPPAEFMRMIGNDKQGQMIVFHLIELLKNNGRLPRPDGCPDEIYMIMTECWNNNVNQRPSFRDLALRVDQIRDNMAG

For `[2H]C([2H])([2H])n1c(=O)n(C2CC3(CC(NC(=O)C4CC4)C3)C2)c2cc(Nc3cc(C(=O)N4CCOCC4)c4cccc(C(F)(F)F)c4n3)ncc21` (stereo not drawn) [Example 90, N-(6-(3-(Methyl-d3)-6-((4-(morpholine-4-carbonyl)-8-(trifluoromethyl)quinolin-2-yl)amino)-2-oxo-2,3-dihydro-1H-imidazo[4,5-c]pyridin-1-yl)spiro[3,3]heptan-2-yl)cyclopropanecarboxamide], the IC50 in test [1] is at most 0.01 µM; in test [2], 0.1 to 0.5 µM; in test [3] it was at most 0.01 µM; in test [4], above 1 µM.

Regarding `[2H]C([2H])([2H])n1c(=O)n([C@@H]2CC[C@](C)(NC(=O)C3CC3)C2)c2cc(Nc3cc(C(C)(C)O)cc(-c4ncc(Cl)s4)n3)ncc21` [Example 92, N-((1S,3R)-3-(6-((6-(5-Chlorothiazol-2-yl)-4-(2-hydroxypropan-2-yl)pyridin-2-yl)amino)-3-(methyl-d3)-2-oxo-2,3-dihydro-1H-imidazo[4,5-c]pyridin-1-yl)-1-methylcyclopentyl)cyclopropanecarboxamide], the IC50 was at most 0.01 µM in test [1], above 1 µM in test [2], at most 0.01 µM in test [3] and above 1 µM in test [4].

Regarding `[2H]C([2H])([2H])n1c(=O)n([C@@H]2CC[C@@H](NC(=O)OC)C2)c2cc(Nc3cc(C(C)(C)O)cc(-c4ncc(Cl)s4)n3)ncc21` [Example 93, Methyl ((1R,3R)-3-(6-((6-(5-chlorothiazol-2-yl)-4-(2-hydroxypropan-2-yl)pyridin-2-yl)amino)-3-(methyl-d3)-2-oxo-2,3-dihydro-1H-imidazo[4,5-c]pyridin-1-yl)cyclopentyl)carbamate], the IC50 in test [1] was at most 0.01 µM; in test [2], above 1 µM; in test [3], at most 0.01 µM; in test [4], above 1 µM.

Take `[2H]C([2H])([2H])n1c(=O)n([C@@H]2CC[C@@H](NC(=O)OC)C2)c2cc(Nc3cc(C(C)(C)O)c4cc(-c5cnn(C)c5)cc(C(F)(F)F)c4n3)ncc21` [Example 94, Methyl ((1R,3R)-3-(6-((4-(2-hydroxypropan-2-yl)-6-(1-methyl-1H-pyrazol-4-yl)-8-(trifluoromethyl)quinolin-2-yl)amino)-3-(methyl-d3)-2-oxo-2,3-dihydro-1H-imidazo[4,5-c]pyridin-1-yl)cyclopentyl)carbamate]: the IC50 in test [1] is at most 0.01 µM; in test [2], above 1 µM; in test [3], at most 0.01 µM; in test [4] it was above 1 µM.

In the case of `[2H]C([2H])([2H])n1c(=O)n([C@@H]2CC[C@@H](NC(=O)OC)C2)c2cc(Nc3cc(C(C)(C)O)cc(-c4cnc(C(F)(F)F)s4)n3)ncc21` [Example 95, Methyl ((1R,3R)-3-(6-((4-(2-hydroxypropan-2-yl)-6-(2-(trifluoromethyl)thiazol-5-yl)pyridin-2-yl)amino)-3-(methyl-d3)-2-oxo-2,3-dihydro-1H-imidazo[4,5-c]pyridin-1-yl)cyclopentyl)carbamate], the IC50 is at most 0.01 µM in test [1], above 1 µM in test [2], at most 0.01 µM in test [3] and above 1 µM in test [4].

Regarding `[2H]C([2H])([2H])n1c(=O)n([C@@H]2CC[C@@H](NC(=O)OC)C2)c2cc(Nc3cc(C(=O)N4CCOCC4)c4cccc(C(C)(C)C#N)c4n3)ncc21` [Example 96, Methyl ((1R,3R)-3-(6-((8-(2-cyanopropan-2-yl)-4-(morpholine-4-carbonyl)quinolin-2-yl)amino)-3-(methyl-d3)-2-oxo-2,3-dihydro-1H-imidazo[4,5-c]pyridin-1-yl)cyclopentyl)carbamate], the IC50 in test [1] is at most 0.01 µM; in test [2], above 1 µM; in test [3], at most 0.01 µM; in test [4], above 1 µM.

On to `[2H]C([2H])([2H])n1c(=O)n([C@@H]2CC[C@@H](NC(=O)OC)C2)c2cc(Nc3ccc(OC)c(-c4ncc(C(F)(F)F)s4)n3)ncc21` [Example 98, Methyl ((1R,3R)-3-(6-((5-methoxy-6-(5-(trifluoromethyl)thiazol-2-yl)pyridin-2-yl)amino)-3-(methyl-d3)-2-oxo-2,3-dihydro-1H-imidazo[4,5-c]pyridin-1-yl)cyclopentyl)carbamate], for which the IC50 is at most 0.01 µM in test [1], above 1 µM in test [2], at most 0.01 µM in test [3] and above 1 µM in test [4].

With `[2H]C([2H])([2H])n1c(=O)n([C@@H]2CC[C@@H](NC(=O)OC)C2)c2cc(Nc3cc(C)cc(-c4ncc(C(C)(C)O)s4)n3)ncc21` [Example 99, Methyl ((1R,3R)-3-(6-((6-(5-(2-hydroxypropan-2-yl)thiazol-2-yl)-4-methylpyridin-2-yl)amino)-3-(methyl-d3)-2-oxo-2,3-dihydro-1H-imidazo[4,5-c]pyridin-1-yl)cyclopentyl)carbamate], the IC50 in test [1] was at most 0.01 µM; in test [2], above 1 µM; in test [3], at most 0.01 µM; in test [4], above 1 µM.

With `[2H]C([2H])([2H])n1c(=O)n([C@@H]2CC[C@@H](NC(=O)OC)C2)c2cc(Nc3cc(C(C)(C)O)cc(-c4ncc(C(F)(F)F)s4)n3)ncc21` [Example 100, Methyl ((1R,3R)-3-(6-((4-(2-hydroxypropan-2-yl)-6-(5-(trifluoromethyl)thiazol-2-yl)pyridin-2-yl)amino)-3-(methyl-d3)-2-oxo-2,3-dihydro-1H-imidazo[4,5-c]pyridin-1-yl)cyclopentyl)carbamate], the IC50 in test [1] is at most 0.01 µM; in test [2], above 1 µM; in test [3] it was at most 0.01 µM; in test [4] it was above 1 µM.

Regarding `[2H]C([2H])([2H])n1c(=O)n([C@@H]2CC[C@@H](NC(=O)OC)C2)c2cc(Nc3cc(CN4CC(C(F)F)C4)cc(-c4ncc(C(F)(F)F)s4)n3)ncc21` [Example 101, Methyl ((1R,3R)-3-(6-((4-((3-(difluoromethyl)azetidin-1-yl)methyl)-6-(5-(trifluoromethyl)thiazol-2-yl)pyridin-2-yl)amino)-3-(methyl-d3)-2-oxo-2,3-dihydro-1H-imidazo[4,5-c]pyridin-1-yl)cyclopentyl)carbamate], the IC50 in test [1] was at most 0.01 µM; in test [2], above 1 µM; in test [3], at most 0.01 µM; in test [4], above 1 µM.

`[2H]C([2H])([2H])n1c(=O)n([C@@H]2CC[C@@H](NC(=O)OC)C2)c2cc(Nc3cc(C(=O)N4CCOCC4)c(-c4cnn(C)c4)c(OC4CCC4)n3)ncc21` [Example 102, Methyl ((1R,3R)-3-(6-((6-cyclobutoxy-5-(1-methyl-1H-pyrazol-4-yl)-4-(morpholine-4-carbonyl)pyridin-2-yl)amino)-3-(methyl-d3)-2-oxo-2,3-dihydro-1H-imidazo[4,5-c]pyridin-1-yl)cyclopentyl)carbamate]: the IC50 in test [1] is at most 0.01 µM; in test [2], above 1 µM; in test [3] it was at most 0.01 µM; in test [4], above 1 µM.

On to `[2H]C([2H])([2H])n1c(=O)n([C@@H]2CC[C@@H](NC(=O)OC)C2)c2cc(Nc3cc(CO)nc(-c4ccc(C(F)F)s4)n3)ncc21` [Example 103, Methyl ((1R,3R)-3-(6-((2-(5-(difluoromethyl)thiophen-2-yl)-6-(hydroxymethyl)pyrimidin-4-yl)amino)-3-(methyl-d3)-2-oxo-2,3-dihydro-1H-imidazo[4,5-c]pyridin-1-yl)cyclopentyl)carbamate], for which the IC50 is at most 0.01 µM in test [1], above 1 µM in test [2], at most 0.01 µM in test [3] and above 1 µM in test [4].
